Reference: US20090137572A1, “2-substituted-4-heteroaryl-pyrimidines useful for the treatment of proliferative disorders” (priority 2004, published 2009)

Key:
Format in all cases: biochemical
Aurora A kinase = molecular target: T1, Aurora A kinase (Homo sapiens, UniProt O14965); test: Aurora-A (human) kinase assay (Kemptide substrate); conditions: pIC50 is -log(IC50, M); 15 μM ATP; read-out: Kinase Inhibition pIC50 Aurora A kinase (converted)
T1 construct: purchased
T1 sequence (O14965 1-403): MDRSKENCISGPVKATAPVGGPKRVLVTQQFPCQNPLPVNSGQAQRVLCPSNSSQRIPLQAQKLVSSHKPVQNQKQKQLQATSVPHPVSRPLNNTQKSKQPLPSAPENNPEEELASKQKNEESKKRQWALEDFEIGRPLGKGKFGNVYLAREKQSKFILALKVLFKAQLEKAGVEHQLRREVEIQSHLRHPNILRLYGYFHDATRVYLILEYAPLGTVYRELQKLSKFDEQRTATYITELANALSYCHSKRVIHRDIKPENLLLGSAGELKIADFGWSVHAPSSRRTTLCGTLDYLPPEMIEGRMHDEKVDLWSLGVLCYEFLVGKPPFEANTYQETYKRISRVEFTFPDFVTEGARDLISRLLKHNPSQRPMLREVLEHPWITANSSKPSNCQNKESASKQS
Method in brief: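 Kemptide (LRRASLG, 200 μM) phosphorylation by 5-10 ng commercial aurora-A measured as [γ-33P] incorporation at 15 μM ATP with 10 mM Mg acetate, pH 7.0 MOPS buffer. Reaction ran 40 min at room temperature; acid-stopped, captured on P81 filters, scintillation read.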

[1] = molecular target: T2, protein kinases (panel of Table 4) (Homo sapiens, UniProt P00519); test: Kinase selectivity profile, kinase inhibition IC50 (Table 4), ATP 100 μM; conditions: kinase Ab1
T2 construct: other: kinase Ab1; ATP 100 μM
T2 sequence (P00519 whole entry): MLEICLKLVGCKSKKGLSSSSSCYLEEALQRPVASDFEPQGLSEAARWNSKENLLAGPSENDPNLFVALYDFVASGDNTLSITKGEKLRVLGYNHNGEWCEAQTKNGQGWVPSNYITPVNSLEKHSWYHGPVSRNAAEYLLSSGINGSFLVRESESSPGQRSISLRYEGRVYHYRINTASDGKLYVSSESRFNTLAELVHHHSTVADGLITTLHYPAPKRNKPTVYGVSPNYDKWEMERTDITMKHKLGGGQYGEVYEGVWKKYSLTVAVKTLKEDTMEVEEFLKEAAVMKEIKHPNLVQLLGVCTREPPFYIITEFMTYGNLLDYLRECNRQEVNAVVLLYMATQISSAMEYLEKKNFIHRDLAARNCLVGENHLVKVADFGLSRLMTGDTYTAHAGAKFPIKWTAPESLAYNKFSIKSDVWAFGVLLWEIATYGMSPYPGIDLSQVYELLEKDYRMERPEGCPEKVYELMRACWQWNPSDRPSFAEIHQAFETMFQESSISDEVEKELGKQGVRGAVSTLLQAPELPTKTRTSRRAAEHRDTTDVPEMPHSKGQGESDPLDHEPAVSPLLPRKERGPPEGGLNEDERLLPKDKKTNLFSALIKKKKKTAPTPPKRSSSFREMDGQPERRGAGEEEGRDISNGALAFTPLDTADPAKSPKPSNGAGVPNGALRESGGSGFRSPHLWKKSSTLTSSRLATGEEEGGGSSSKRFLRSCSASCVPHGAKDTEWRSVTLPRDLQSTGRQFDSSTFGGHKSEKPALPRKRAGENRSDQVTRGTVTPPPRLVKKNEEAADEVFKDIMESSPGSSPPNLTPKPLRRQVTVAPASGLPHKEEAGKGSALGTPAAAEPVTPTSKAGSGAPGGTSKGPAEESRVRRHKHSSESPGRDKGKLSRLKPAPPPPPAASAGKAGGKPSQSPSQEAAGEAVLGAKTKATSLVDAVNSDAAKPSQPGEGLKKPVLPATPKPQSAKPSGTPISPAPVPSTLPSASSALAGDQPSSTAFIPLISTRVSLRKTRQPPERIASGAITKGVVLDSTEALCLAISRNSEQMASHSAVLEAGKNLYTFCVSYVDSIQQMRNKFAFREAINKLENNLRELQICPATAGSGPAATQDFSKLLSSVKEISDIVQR
Experimental: (§1) For the assays shown in Table 3, the kinases were assayed at the following ATP concentrations: SAPK4, PKBΔph, GSK3b, SAPK3, CK2, MKK1, PIM2, IKKB, ERK8, and PRK2 at 5 μM; JNK, PRAK, ROCK-II, SAPK2b, CDK2, CHK1, MSK1, CSK, P70S6K, PKA, CK1, MAPKAP-K2, SGK, PKCa, PDK1, NEK 7, and MAPKAP-K3 at 20 μM; SAPK2a, LCK, AMPK, MAPK2, DYRK1a, MAPKAP-K1a, NEK-6, NEK2a, PBK, CAMK-1, SRPK-1, JNK3, MNK2, RSK2, MNK1, PKBB, and SmMLCK at 50 μM. For the assays in Table 4 the ATP concentration was 100 μM throughout.

[2] = molecular target: T3, protein kinases (panel of Table 4) (Homo sapiens, UniProt P06239); test: as above; conditions: kinase Lck
T3 construct: other: kinase Lck; ATP 100 μM
T3 sequence (P06239 whole entry): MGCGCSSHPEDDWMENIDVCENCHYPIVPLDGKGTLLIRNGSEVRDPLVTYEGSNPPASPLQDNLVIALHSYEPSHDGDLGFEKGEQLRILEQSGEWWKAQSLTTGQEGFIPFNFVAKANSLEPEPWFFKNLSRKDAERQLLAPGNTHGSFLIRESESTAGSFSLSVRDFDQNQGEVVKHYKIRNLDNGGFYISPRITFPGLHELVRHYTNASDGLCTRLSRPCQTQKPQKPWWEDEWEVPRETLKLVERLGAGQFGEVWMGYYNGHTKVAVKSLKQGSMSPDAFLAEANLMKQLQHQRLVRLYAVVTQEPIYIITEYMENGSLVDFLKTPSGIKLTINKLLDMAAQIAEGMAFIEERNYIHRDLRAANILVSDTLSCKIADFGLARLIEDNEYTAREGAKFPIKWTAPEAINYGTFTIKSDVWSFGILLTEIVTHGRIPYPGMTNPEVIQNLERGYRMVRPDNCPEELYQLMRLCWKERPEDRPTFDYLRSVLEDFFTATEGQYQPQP
Experimental: as §1

[3] = molecular target: T4, protein kinases (panel of Table 4) (Homo sapiens, UniProt P49840); test: as above; conditions: kinase GSK3a
T4 construct: other: kinase GSK3a; ATP 100 μM
T4 sequence (P49840 whole entry): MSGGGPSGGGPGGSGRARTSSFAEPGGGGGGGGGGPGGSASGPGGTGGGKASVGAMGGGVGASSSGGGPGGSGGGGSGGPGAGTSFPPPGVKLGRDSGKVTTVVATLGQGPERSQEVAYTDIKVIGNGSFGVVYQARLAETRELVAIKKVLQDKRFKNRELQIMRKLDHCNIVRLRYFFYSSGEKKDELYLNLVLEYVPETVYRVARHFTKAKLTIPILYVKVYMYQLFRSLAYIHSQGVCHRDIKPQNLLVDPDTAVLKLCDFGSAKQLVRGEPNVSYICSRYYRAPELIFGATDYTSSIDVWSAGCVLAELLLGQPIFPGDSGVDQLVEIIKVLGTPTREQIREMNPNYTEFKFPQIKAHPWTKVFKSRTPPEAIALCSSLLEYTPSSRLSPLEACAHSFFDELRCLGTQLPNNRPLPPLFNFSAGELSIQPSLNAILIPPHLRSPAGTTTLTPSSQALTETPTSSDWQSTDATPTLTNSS
Experimental: as §1

Row | SMILES | IC50 (Aurora A kinase) [nM] | IC50 [1] [nM] | IC50 [2] [nM] | IC50 [3] [nM]
1 | CCNc1nc(C)c(-c2ccnc(Nc3ccc(N4CCNCC4)cc3)n2)s1 [Compound 59, [4-(2-Ethylamino-4-methyl-thiazol-5-yl)-pyrimidin-2-yl]-(4-piperazin-1-yl-phenyl)-amine] | 79.4 | 470 | 120 | > 10000
2 | Cc1ccc(Nc2nccc(-c3sc(N)nc3C)n2)cc1S(=O)(=O)N1CCOCC1 [Compound 38, [4-(2-Amino-4-methyl-thiazol-5-yl)-pyrimidin-2-yl]-[4-methyl-3-(morpholine-4-sulfonyl)-phenyl]-amine] | 501 | 2300 | 2600 | 960
3 | Cc1nc(CS(=O)(=O)c2cccs2)sc1-c1ccnc(Nc2ccc(N3CCOCC3)cc2)n1 [Compound 138, {4-[4-Methyl-2-(thiophene-2-sulfonylmethyl)-thiazol-5-yl]-pyrimidin-2-yl}-(4-morpholin-4-yl-phenyl)-amine] | 50.1 |  |  | 
4 | COCCNS(=O)(=O)c1cccc(Nc2nccc(-c3sc(N)nc3C)n2)c1 [Compound 55, 3-[4-(2-Amino-4-methyl-thiazol-5-yl)-pyrimidin-2-ylamino]-N-(2-methoxy-ethyl)-benzenesulfonamide] | 158 | 2100 | 1800 | 290
5 | CNc1nc(C)c(-c2ccnc(Nc3ccc(C)c(S(=O)(=O)N4CCOCC4)c3)n2)s1 [Compound 37, [4-(4-Methyl-2-methylamino-thiazol-5-yl)-pyrimidin-2-yl]-[4-methyl-3-(morpholine-4-sulfonyl)-phenyl]-amine] | 1000 | 3800 | 4900 | 650

The remaining lines, values ahead:

Row | IC50 (Aurora A kinase) [nM] | IC50 [1] [nM] | IC50 [2] [nM] | IC50 [3] [nM] | SMILES
6 | 39.8 | 370 | 490 | 160 | CNc1nc(C)c(-c2ccnc(Nc3cccc(S(N)(=O)=O)c3)n2)s1 [Compound 19, 3-[4-(4-Methyl-2-methylamino-thiazol-5-yl)-pyrimidin-2-ylamino]-benzenesulfonamide]
7 | 316 | 2100 | 500 | 12 | CNc1nc(C)c(-c2ccnc(Nc3cccc(S(C)(=O)=O)c3)n2)s1 [Compound 27, (3-Methanesulfonyl-phenyl)-[4-(4-methyl-2-methylamino-thiazol-5-yl)-pyrimidin-2-yl]-amine]
